Data reported in US5990083A, “Multicatalytic protease inhibitors” (Cephalon, Inc., priority 1997, dated 1999).

Experiments:
[1] = system: unweighting atrophy of the soleus muscle; test: Inhibition of unweighting atrophy of the soleus muscle in juvenile rats (muscle protein content); format: in vivo, rat; details: for Protein, End (day 3 of unweighting) / Effect (%), change in protein content during day 3 of unweighting: Table 2; for Protein, End (day 3 of unweighting): 24 hours after in situ soleus injection at day 2 of unweighting, mersalyl 200 nM aqueous; for Protein, End (day 3 of unweighting) / Protein, Treatment (unweighted muscle): MCP inhibitor 1 mM in DMSO; for Effect (%), change in protein content during day 3 of unweighting: End versus Start (estimated day 2 content); for Effect (%) on unweighted muscle protein / Protein, Treatment (unweighted muscle): Table 3; for Effect (%) on unweighted muscle protein: Treatment versus Vehicle contralateral muscle; for Protein, Treatment (unweighted muscle): treated soleus, contralateral muscle received vehicle, mersalyl 200 nM
Experimental: The effect of several inhibitors on the unweighting atrophy of the soleus muscle in juvenile rats was determined. See Tischler, M. E. (1990) Metabolism 39/7: 756-763 (hereinafter "Tischler--1990") for a general discussion of the procedure.
(§1) Juvenile female Sprague-Dawley rates (80-90 g) were tail-cast, hind limb suspended as in Jetspers, S. R. and Tischler, M. E., (1984) J. Appl. Physiol. 57: 1472-1479. The animal's hind limbs were elevated above the floor of the cage with each animal housed individually. Animals had free access to food and water, and were weighed at the time of suspension and at time of termination. During the suspension period the animals were checked daily to ensure that their toes were not touching the floor of the cage, and that there was no swelling of the tail due to the cast.
Each experiment began with the suspension of 20 rats which were randomly divided into 4 groups of 5 animals each. Group A was suspended for just 2 days and provided baseline data to approximate the soleus muscle size in other animals suspended for longer times. Average body weights for the groups at the outset of the study were compared and used as a correction factor for body size differences. […] See Tischler--1990. At 2 days after unweighting commenced, an aqueous solution of mersalyl (200 nM; 4 μl/100 g initial body wt) was injected into one soleus, as described previously. The contralateral muscle was injected with a similar volume of 0.9% saline ("Vehicle"). The animals were maintained under Innovar-vet (10 μl/100 g body wt) tranquilization during the in situ injection procedure. After the injections, the animals were suspended for an additional 24 hours and the soleus was removed. Groups C and D for each experiment were used for testing each of two different embodiments of the disclosed compounds.
(§2) Animals were treated as in group B, except that 1 mM MCP inhibitor, contained in dimethysulfoxide (DMSO), was injected into the soleus of one leg and DMSO only into the contralateral soleus. Thus each experiment consisted of two control groups and the testing of MCP inhibitors of the invention. The completion of five such experiments with different pairs of inhibitors provided for an "n" value of 10 for testing each MCP inhibitor and with each tested in two different shipments of animals.
(§3) After the animal was sacrificed, the soleus was excised, trimmed of fat and connective tissue, and carefully weighed. The muscle was then homogenized in 10% trichloroacetic acid (TCA) and the precipitated protein pelleted by centrifugation. The pellet was then washed once with 10% TCA and once with ethanol:ether (1:1). The final pellet was solubilized in 4 ml of 1N sodium hydroxide. The sample was then analyzed for protein content by the biuret procedure, using albumin as a standard.
The effect of MCP inhibitors on total muscle protein content was examined primarily by paired comparison with the untreated contralateral muscle. The ratio of contents was calculated and then analyzed statistically by analysis of variance ("ANOVA"). The left leg was always the treated leg so that the protein content ratios could be compared to the non-treated control animals as well. In this way, a significant difference can be shown by comparing the protein content of the two legs, as well as the relative effectiveness of the tested MCP inhibitors. A paired student test was also performed for the effect of each separate treatment. The non-treated control data also provided an estimate of protein content of day 2. This allowed approximation of the protein changes over the 24 hours of treatment for each of the Groups B, C, and D.

human MCP = target: T1, human MCP (Homo sapiens, UniProt P28074+Q99436); test: Determination of IC50 values for MCP inhibitors (chymotrypsin-like or trypsin-like activity of MCP); format: biochemical; details: Table 5, first series; enzyme incubated with inhibitor 15 minutes at 37° C. prior to substrate
T1 construct: Samples of human liver and brain obtained post-mortem were used for isolation and partial purification of MCP; from tissue; host or cells: human liver and brain, post-mortem
Experimental: Samples of human liver and brain obtained post-mortem were used for isolation and partial purification of MCP by ion-exchange chromatography, ammonium sulfate precipitation, and gel filtration (e.g., Driscoll and Goldberg, Proc. Natl. Acad. Sci. 86, 787-791 (1989); Yamamoto et al., Biochim, Biophys. Acta 882, 297-304 (1986). For either starting material, tissue was homogenized in 10 volumes of 20 mM Tris-HCl (pH 7.5) containing 20% glycerol. Following centrifugation at 40,000×g for 30 minutes, proteolytic activity of the chymotrypsin-like component of MCP could be detected in the supernatant (see below). The supernatant was fractionated on a DEAE-Sepharose Fast Flow column equilibrated in homogenization buffer. For each liter of supernatant, 250 ml of resin was used. Following sample loading, the column was washed with ^~ 10 volumes homogenization buffer, and proteins were eluted with a linear NaCl gradient of from 0 to 400 mM (21 for 250 ml resin). Fractions were assayed for MCP activity, and the active fractions were pooled and subjected to precipitation with (NH4)2 SO4 at 80% saturation. Precipitated proteins were collected by centrifugation, resuspended in homogenization buffer, and loaded on a Sephacryl S300HR column (500 ml resin volume) that had been standardized using bovine serum albumin (68 kDa). A single peak of MCP activity was eluted with a molecular weight of ^~ 650 kDa. This preparation was free of other measurable proteolytic activities and maintained its MCP activity upon storage at 4° C. for >6 months. This preparation was used for most of the experiments. Further fractionation of the preparation on an hydroxyapatite-Ultrogel column (Yamamoto et al., supra) yielded a more highly purified enzyme, which according to denaturing SDS-polyacrylamide gel electrophoresis was comprised of the expected >10 subunits ranging in Mr from 20 to 35 kDa.
The procedure for MPC isolation described above generated an enzyme complex whose proteolytic activities were latent, but which could be activated by addition of low concentrations (0.02-0.05%) of SDS (Yamamoto et al., supra). The chymotrypsin-like activity was assayed according to the following procedure: in 96 well microtiter plates, human MCP was diluted 4 to 10-fold in homogenization buffer containing 0.04% SDS. A calorimetric substrate MeOSuc-EVKM-para-nitroanilide (methoxysuccinyl-Glu-Val-Lys-Met-pNa), purchased from Bachem Bioscience Inc., King of Prussia, Pennsylvania was added to a final concentration of 100 μM from a stock solution of 10 mM in dimethylsulfoxide. Reaction volumes were 200 μl per well. After incubation for various periods of time at 37° C., the concentration of free pNa was determined on a Biotech EL-340 microplate reader, reading absorption at 490 nm. Protease activity was determined under conditions in which substrate hydrolysis increased linearly with time and the change in absorption was proportional to the concentration of free pNa. Alternatively, a fluorogenic substrate was used, methoxysuccinyl-Phe-Leu-Phe-amidomethylcoumarin (Enzyme Systems Products, Dublin, Calif.), and the change in fluorescence monitored at an excitation of 390 nm, and an emission at 460 nm.
The trypsin-like activity of human MCP was assayed as described above with the following modifications. Reactions were carried out in Tris-glycerol buffer (pH 9.5) supplemented with 1 mM 2-mercaptoethanol, and the substrate was a fluorogenic substrate, Benzyloxycarbonyl--Phe--Arg--AMC (100 μM).
After incubation for various periods of time at 37° C., the concentration of free AMC was determined on a Fluoroskan II spectrofluorimeter with an excitation filter of 390 nm and an emission filter of 460 nm. Protease activity was determined under conditions in which substrate hydrolysis increased linearly with time and the change in fluorescence was proportional to the concentration of free AMC. […]

[2] = system: Ile113→Thr mutant SOD-1 in human 293 cells; test: SOD-1 levels in transiently transfected 293 cells (immunoblot); details: 5 μM, 24 hours, FIG. 5
Experimental: The human kidney cell line designated 293 (human 293 cells or 293 cells)was obtained from the American Type Culture Collection (ATCC), 12301 Parklawn Drive, Rockville, Md., 20852 (ATCC #CRL 1573) and grown in Dulbecco's modified Eagle's medium with 4.6 g/L glucose, 10% heat-inactivated horse serum (Gibco/Life Technologies Inc. Gaithersburg, Md.). The human 293 cells were maintained at 37° C. in an atmosphere of 5% CO2. The 293 cells were transiently transfected using the calcium phosphate method (Chen, C. et al., Biotechniques 6: 632 (1988). The pCMV-113 SOD-1 expression vector was introduced into 293 cells and 24 hours later, the cells were incubated with either compound 34, compound 14, or compound 24, all at a concentration of 5 μM, for a duration of 24 hours. The known MCP and other protease inhibitory compounds were solubilized in dimethyl sulfoxide (DMSO). Other 293 cell cultures were incubated with an equal volume of DMSO or left in medium only as negative controls.
Approximately 48 hours prior to receiving test compounds, 5×10^5 293 cells were seeded in 36 mm dishes and maintained at 37° C. in an atmosphere of 5% CO2. Cells were incubated with MCP inhibitors (compound 34, 14 or 24) or with DMSO as a negative control for a duration of 24 hours. Cell lysates were prepared by lysing the cells in approximately 75 μl of phosphate-buffered saline (PBS) by freeze/thaw cycling. Protein concentrations of the cell lysates were determined using the BCA method (Pierce, Rockford, Ill.) and 2 to 2.5 μg of each sample was electrophoresed on a 4-20% polyacrylamide geol (Novex, San Diego, Calif.) using a Tris/glycine/SDS (25 mM Tris/192 mM glycine/0.1% SDS) buffer system. […] Stained bands corresponding to SOD-1 protein were quantitated using a DocuGel V image analysis system and RFLPscan software (Scanalytics, Billerica, Mass.). Levels of SOD-1 are expressed as units of induction relative to the negative control (i.e., units of experimental divided by units of control).

control soleus muscle = test: Effect of MCP inhibitors on control muscle protein content; format: in vivo, rat; details: Table 1; treated soleus versus vehicle-injected contralateral muscle
Excerpt: as §1, §2, §3
The effect of MCP inhibitors on total muscle protein content was examined primarily by paired comparison with the untreated contralateral muscle. The ratio of contents was calculated and then analyzed statistically by analysis of variance ("ANOVA"). The left leg was always the treated leg so that the protein content ratios could be compared to the non-treated control animals as well. In this way, a significant difference can be shown by comparing the protein content of the two legs, as well as the relative effectiveness of the tested MCP inhibitors. […]

SMILES | Protein, End (day 3 of unweighting) [1] [mg/muscle] | Effect (%), change in protein content during day 3 of unweighting [1] | Effect (%) on unweighted muscle protein [1] [%] | Protein, Treatment (unweighted muscle) [1] [mg/muscle] | IC50 (human MCP) [nM] | SOD-1 levels compared to controls [2] | Protein, Treatment (control muscle) (control soleus muscle) [mg/muscle]
CC(C)C[C@@H](C=NNC(N)=O)NC(=O)[C@H](CCCNC(=N)N[N+](=O)[O-])NC(=O)C(CCCCCCCCC#N)C1CCCC1 (stereo partly drawn) [Compound 16, 10-cyano-2-cyclopentyl-decanoyl-N g-nitro-L-arginyl-L-leucinal semicarbazone] | 6.0 | -5% | 0 | 6.0 | 100 | – | –
CC(C)C[C@@H](C=O)NC(=O)[C@H](CCCNC(=N)N[N+](=O)[O-])NC(=O)C(CCCCCCCCN1C(=O)c2ccccc2C1=O)C1CCCC1 (stereo partly drawn) [Compound 24, 2-cyclopentyl-10-N-phthalimido-decanoyl-N^g-nitro-L-arginyl-L-leucinal] | – | – | – | – | 2 | modestly elevated | –
COC(=O)CCCCCCCC(=O)N[C@@H](CCCN=C(N)NS(=O)(=O)c1c(C)cc(OC)c(C)c1C)C(=O)N[C@H](C=O)CC(C)C [Compound 34, Monomethylazelayl-N^g-(4-methoxy,2,3,6-trimethylbenzene-1-sulfonyl)-L-arginyl-L-leucinal] | 6.6 | +5% | 12 | 6.6 | 80 | modestly elevated | 6.3
COC(CNC(=O)c1ccccc1OCC(=O)O)[CH2][Hg][OH] (stereo not drawn) [Mersalyl, reference compound] | 6.6 | +3% | 14 | 6.6 | – | – | –
